Results reported in BindingDB's records for patent US11066406 (Janssen Pharmaceutica, 2021).

Target: T1, Tyrosine-protein kinase JAK3 [512-1124] (Homo sapiens, UniProt P52333)
T1 construct: 512-1124
T1 sequence (P52333 whole entry): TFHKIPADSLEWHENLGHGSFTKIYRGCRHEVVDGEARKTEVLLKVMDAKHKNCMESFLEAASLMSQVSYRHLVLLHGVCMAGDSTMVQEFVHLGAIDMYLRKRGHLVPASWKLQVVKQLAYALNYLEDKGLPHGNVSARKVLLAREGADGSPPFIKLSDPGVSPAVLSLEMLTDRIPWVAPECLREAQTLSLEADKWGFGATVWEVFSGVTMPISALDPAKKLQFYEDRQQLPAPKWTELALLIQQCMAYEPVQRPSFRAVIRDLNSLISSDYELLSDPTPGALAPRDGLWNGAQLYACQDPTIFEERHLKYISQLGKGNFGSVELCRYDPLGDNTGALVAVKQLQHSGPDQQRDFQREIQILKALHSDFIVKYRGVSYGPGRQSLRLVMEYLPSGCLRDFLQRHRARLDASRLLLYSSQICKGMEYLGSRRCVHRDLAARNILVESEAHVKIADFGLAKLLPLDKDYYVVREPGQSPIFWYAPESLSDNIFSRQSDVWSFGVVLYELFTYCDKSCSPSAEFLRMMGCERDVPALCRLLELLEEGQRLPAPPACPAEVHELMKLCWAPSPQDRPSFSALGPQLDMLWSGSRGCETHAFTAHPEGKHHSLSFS
Assay: Enzymatic Inhibition Assay
Source text: LC/MS grade water and acetonitrile (ACN), were purchased from HoneyWell, Burdick & Jackson (Muskegon, Mich., USA).

Structure (SMILES)	IC50 [nM]
N#CCC1(n2c(CC(=O)NCC3CCOCC3)nc3cnc4[nH]ccc4c32)CCCCC1 [US11066406, Ex. 6]	28.2
N#CCCNC(=O)Cc1nc2cnc3[nH]ccc3c2n1C1CCC(CC#N)CC1 (stereo unspecified) [US11066406, Ex. 4]	96.2
N#CCC1CCC(n2c(CC(=O)Nc3cc[nH]n3)nc3cnc4[nH]ccc4c32)CC1 (stereo unspecified) [US11066406, Ex. 11]	30.3
N#CCC1CCC(n2c(CC(=O)NCC3(O)CCC3)nc3cnc4[nH]ccc4c32)CC1 (stereo unspecified) [US11066406, Ex. 8]	75.6
N#CCC1CCC(n2c(CC(=O)NC34CCC(CC#N)(CC3)C4)nc3cnc4[nH]ccc4c32)CC1 (stereo unspecified) [US11066406, Ex. 10]	87.5
N#CC[C@H]1CC[C@H](n2c(CC(=O)NCC3CC3)nc3cnc4[nH]ccc4c32)CC1 [US11066406, Ex. 3]	82.8
N#CCC1CCC(n2c(CC(=O)NC3CCOCC3)nc3cnc4[nH]ccc4c32)CC1 (stereo unspecified) [US11066406, Ex. 5]	23.1
N#CCC1CCC(n2c(CC(=O)NCC3(O)CC3)nc3cnc4[nH]ccc4c32)CC1 (stereo unspecified) [US11066406, Ex. 12]	101
CC(C)(O)CNC(=O)Cc1nc2cnc3[nH]ccc3c2n1C1CCC(CC#N)CC1 (stereo unspecified) [US11066406, Ex. 1]	92.2
CC(C)(C#N)CNC(=O)Cc1nc2cnc3[nH]ccc3c2n1C1CCC(CC#N)CC1 (stereo unspecified) [US11066406, Ex. 7]	98.4
Cn1cc(NC(=O)Cc2nc3cnc4[nH]ccc4c3n2C2CCC(CC#N)CC2)cn1 (stereo unspecified) [US11066406, Ex. 9]	79.9
